Source: patent publication US8557805B2, “Fused ring compound and use thereof” (Takeda Pharmaceutical Company Limited, priority 2008, dated 2013)

Experiments:
[1] = biological target: T1, human liver GK (GST-hLGK1) (Homo sapiens, UniProt P35557); assay: Determination of GK activity value (Mant-ATP to Mant-ADP conversion, capillary electrophoresis); assay type: biochemical; conditions: reaction started with 25 mM D-glucose solution, 37° C., 60 min, concentration at midpoint between maximum activity value and control group activity value
T1 construct: with a BamHI site added to immediately before the initiation codon; made in house; host or cells: Escherichia coli BL21 (Stratagene), plasmid pGEX6P-2/hLGK1
T1 sequence (P35557 1-464 isoform P35557-3): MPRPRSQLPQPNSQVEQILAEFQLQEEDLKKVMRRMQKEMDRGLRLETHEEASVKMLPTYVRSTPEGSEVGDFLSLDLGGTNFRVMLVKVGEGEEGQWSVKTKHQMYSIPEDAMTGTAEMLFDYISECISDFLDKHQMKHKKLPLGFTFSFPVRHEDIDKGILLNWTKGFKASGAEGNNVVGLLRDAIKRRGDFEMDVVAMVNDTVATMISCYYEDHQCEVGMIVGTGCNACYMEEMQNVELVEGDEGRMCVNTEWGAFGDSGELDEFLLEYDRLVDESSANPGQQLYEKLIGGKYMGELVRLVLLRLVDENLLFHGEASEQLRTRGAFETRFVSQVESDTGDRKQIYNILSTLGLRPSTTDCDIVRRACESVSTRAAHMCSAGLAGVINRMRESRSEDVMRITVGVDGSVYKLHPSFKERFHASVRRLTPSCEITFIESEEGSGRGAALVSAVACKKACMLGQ
Experimental: Plasmid DNA to be used for the expression of a protein (GST-hLGK1) containing GST (Glutathione S-transferase) added to the amino terminal of human liver GK in Escherichia coli was prepared as follows.
First, PCR was performed using human liver cDNA (Marathon Ready cDNA, Clontech Laboratories, Inc.) as a template and two kinds of synthetic DNAs (5′-[…]-3′ (SEQ ID NO: 1) and 5′-[…]-3′ (SEQ ID NO: 2)), and the obtained DNA fragment was closed using a TOPO TA Cloning Kit (Invitrogen Corporation). PCR was performed using the obtained plasmid DNA as a template and a synthetic DNA (5′-[…] CAGAG-3′ (SEQ ID NO: 3)) with a BamHI site added to immediately before the initiation codon, and a synthetic DNA (5′-[…]-3′ (SEQ ID NO: 4)) with an EcoRI site added to immediately after the stop codon. The obtained DNA fragment was subcloned to pGEX6P-2 (Amersham Biosciences K.K.) cleaved with BamHI and EcoRI to give a plasmid (pGEX6P-2/hLGK1) for expression of human liver GK.
BL21 strain (Stratagene) transformed with pGEX6P-2/hLGK1 obtained in (1) was cultured with shaking at 37° C. for 14 hr in a 200 ml Erlenmeyer flask containing 50 ml of 100 μg/ml ampicillin-containing LB medium. The culture medium (25 ml) was diluted with 225 ml of 100 μg/ml ampicillin-containing LB medium, and further cultured with shaking at 37° C. for 1 hr in a 1 L Erlenmeyer flask. After culture, the Erlenmeyer flask was cooled on ice, 125 μL of 100 mM isopropyl-thio-β-D-galactopyranoside (IPTG) was added (final concentration 50 μM), and cultured at 17° C. for 20 hr. The culture medium was centrifuged, and the obtained fungus was disrupted by ultrasonication. The object protein (GST-hLGK1) was purified from the supernatant using Glutathione Sepharose 4B (Amersham Biosciences K.K.).
A solution (5 μL) of test compound in 50% dimethyl sulfoxide was added to each well of 384 well black plate (Nalge Nunc International K.K.). Then, a solution (35 μL) obtained by diluting GST-hLGK1 obtained in (2) with measurement buffer (containing 50 mM HEPES (pH 7.4), 200 mM KCl, 5 mM MgCl2, 2.5 mM DTT and 50 μM 2′-(or-3′)-O—(N-methylanthraniloyl)adenosine 5′-triphosphate (Mant-ATP) (Jena Bioscience GmbH)) to 6 μg/mL was added to each well.
Each well was stood at 37° C. for 10 min, and 25 mM D-glucose solution (10 μL) was added to start the reaction.
Each well after the reaction was stood at 37° C. for 60 min, and the reaction was quenched by adding 25 μL of a quenching solution (containing 200 mM HEPES (pH 7.4), 20 mM MgCl2, 200 mM EDTA, 0.03% Triton-X 100, 0.3% Coating 3 reagent (Caliper Life Sciences, Inc.)).
2′-(or -3′)-O—(N-methylanthraniloyl)adenosine 5′-triphosphate (Mant-ATP, substrate) and Mant-ADP (reaction resultant product) were separated from each well after the reaction by a microchip type capillary electrophoresis apparatus 250 HTS (Caliper Life Sciences, Inc.). The reaction rate [(reaction resultant product peak height)/(reaction resultant product peak height+substrate peak height)×100(%)] was calculated from the ratio of the substrate peak height and reaction resultant product peak height obtained by fluorescence detection (excitation wavelength 355 nm, measurement wavelength 460 nm) and used as the index of GK activity.
3.5 As a control group, the reaction rate was calculated in the same manner as above except that “solution in 50% dimethyl sulfoxide (without test compound)” was used instead of “solution of test compound in 50% dimethyl sulfoxide”.
A concentration dependency curve of the test compound was drawn with the percentage obtained by dividing the reaction rate of the well added with the test compound (test compound addition group) by the reaction rate of the control group was taken as the GK activity value of the test compound, and the concentration of the test compound at the midpoint between the maximum activity value of the test compound addition group and the control group activity value is shown as EC50 value.

| SMILES | EC50 [1] [nM] | melting point [°C] |
| --- | --- | --- |
| COCCNC(=O)CC1CN=C(c2cc3cc(Oc4ccc(S(C)(=O)=O)nc4)ccc3[nH]2)S1 (centres unmarked) [Example 57, N-(2-Methoxyethyl)-2-[2-(5-{[6-(methylsulfonyl)pyridin-3-yl]oxy}-1H-indol-2-yl)-4,5-dihydro-1,3-thiazol-5-yl]acetamide] | 160 | 155 to 156 |
| CS(=O)(=O)c1ccc(Oc2ccc3[nH]c(C4=NCC(CC(=O)N5CCOCC5)S4)cc3c2)cn1 (centres unmarked) [Example 58, 5-{[6-(Methylsulfonyl)pyridin-3-yl]oxy}-2-[5-(2-morpholin-4-yl-2-oxoethyl)-4,5-dihydro-1,3-thiazol-2-yl]-1H-indole] | 120 | 190 to 191 |
| CS(=O)(=O)c1ccc(Oc2cc(OC3CCOCC3)c3[nH]c(C4=NCC(CCO)S4)cc3c2)cc1 (centres unmarked) [Example 2, 2-(2-{5-[4-(Methylsulfonyl)phenoxy]-7-(tetrahydro-2H-pyran-4-yloxy)-1H-indol-2-yl}-4,5-dihydro-1,3-thiazol-5-yl)ethanol] | 18 | 116 to 117 |
| Cc1cc(Oc2ccc(S(C)(=O)=O)nc2)cc2cc(C3=NCC(CC(=O)N4CCOCC4)S3)[nH]c12 (centres unmarked) [Example 80, 7-Methyl-5-{[6-(methylsulfonyl)pyridin-3-yl]oxy}-2-[5-(2-morpholin-4-yl-2-oxoethyl)-4,5-dihydro-1,3-thiazol-2-yl]-1H-indole] | 54 | 152 to 154 |
